From the Deep4Chem optical property database come the findings set out here.

Each structure is given as a SMILES string.

A short description of the series: solvent given as SMILES.

Consider `CCC1(CC)c2cc(-c3ccc(C(C)(C)C)cc3)ccc2-c2ccc(-c3ccc4c(c3)C(CC)(CC)c3cc(-c5ccc6c(c5)C(CC)(CC)c5cc(-c7ccc(C(C)(C)C)cc7)ccc5-6)ccc3-4)cc21`, for which, for the setting “in CO”, the emission maximum is 402.3 nm.

`Cc1ccc2nc3c4c(c5ccccc5c3nc2c1)OC(=O)CC4c1ccc(C(F)(F)F)cc1` (configuration not stated) registered an emission maximum (in ClC(Cl)Cl) of 430 nm.

On to `COc1cc(C=O)cc(-c2[nH]c(=O)n3c2-c2ccccc2C3=O)c1O`, for which the emission maximum worked out at 473 nm (in CC#N), 490 nm (in CO) and 467 nm (in ClCCl).

Compound `CCCCCCCCN1C(=O)c2ccc3c4c(-c5ccc(-n6c7ccccc7c7ccccc76)cc5)cc5c6c(cc(-c7ccc(-n8c9ccccc9c9ccccc98)cc7)c(c7ccc(c2c37)C1=O)c64)C(=O)N(CCCCCCCC)C5=O` displayed an emission maximum (in ClC(Cl)Cl) of 651 nm.

With `CN(CCO)c1ccc(/C=C/C2=CC(=C(C#N)C#N)CC(C)(C)C2)cc1`, the emission maximum reads like this: (in CC#N) 651 nm; (in CC(C)=O) 648 nm; (in CCCCO) 649 nm; (in ClC(Cl)Cl) 612 nm; (in ClCCl) 634 nm; (in c1ccccc1) 588 nm.

The compound `Fc1ccc(-c2cc3ccc4cc(-c5ccc(F)cc5)cc5ccc(c2)c3c45)cc1` yielded an emission maximum (in C1CCCCC1) of 413.38 nm; an emission maximum (in C1CCOC1) of 411.8 nm; an emission maximum (in CC#N) of 408.05 nm; an emission maximum (in CCCCCC) of 411.8 nm; an emission maximum (in CCO) of 408.84 nm; an emission maximum (in CN(C)C=O) of 409.82 nm. Moreover, the emission maximum runs as follows: (in CO) 408.05 nm; (in ClC(Cl)Cl) 410.54 nm; (in ClCCl) 409.82 nm.

`CCCCCN1c2ccccc2Sc2cc(/C=C/c3ccc(/C=C(\C#N)C(=O)O)s3)ccc21` returned an emission maximum (in ClCCl) of 704 nm.

As to `c1ccc2c(-c3ccc(-c4nnc(-c5ccc(-c6nnc(-c7ccc(-c8cccc9ccccc89)s7)o6)cc5)o4)s3)cccc2c1`, the emission maximum by setting is: (in C1COCCO1) 434 nm; (in CC#N) 458 nm; (in CC(=O)N(C)C) 462 nm; (in CCCCCCCCCCO) 440 nm; (in CCCCCCCCO) 442 nm; (in CCCCCCO) 445 nm. For the same compound, the emission maximum is, setting by setting: (in CCCCO) 451 nm; (in CCO) 459 nm; (in CS(C)=O) 468 nm; (in Cc1ccccc1) 434 nm; (in ClC(Cl)Cl) 410 nm.

With `CC(C)(C)c1cccc2c(O)cccc12`, the emission maximum (in O) worked out at 367 nm.

`N#C/C(=C\c1ccc(C=C(c2ccccc2)c2ccccc2)cc1)c1ccc([N+](=O)[O-])cc1` came in with an emission maximum (in C1CCOC1) of 552 nm.

Consider `O=c1c2cc3[nH]c4c(S(=O)(=O)O)cc(S(=O)(=O)O)cc4c(=O)c3cc2[nH]c2c(S(=O)(=O)O)cc(S(=O)(=O)O)cc12`, for which, where the note is “in O”, the emission maximum is recorded as 550 nm.

For `CC(C)[Si](C#Cc1c2nsnc2c(C#C[Si](C(C)C)(C(C)C)C(C)C)c2nc3c(ccc4cc5ccccc5cc43)nc12)(C(C)C)C(C)C`, under “in CCCCCC”, the emission maximum was found to be 605 nm.

Compound `CC(C)[Si](C#Cc1c2nc3ccccc3nc2c(C#C[Si](C(C)C)(C(C)C)C(C)C)c2nc3c(ccc4ccccc43)nc12)(C(C)C)C(C)C` came in with an emission maximum (in CCCCCC) of 656 nm.

The compound `COc1ccc(C2=N/C(=C\c3ccccc3)C(=O)O2)cc1OC` displayed an emission maximum (in C1COCCO1) of 447 nm.

Take `COc1ccc(C(=Cc2ccc(/C=C/c3ccc(C#N)cc3)cc2)c2ccc(OC)cc2)cc1`: the emission maximum (in C1CCOC1) was 467 nm.

`CCCCC(CC)CN1C(=O)C2=C(c3ccc(-c4ccc(C5=C6C(C)=CC(C)=[N+]6[B-](F)(F)n6c(C)cc(C)c65)cc4)s3)N(CC(CC)CCCC)C(=O)C2=C1c1cccs1` (configuration not stated) returned an emission maximum (in Cc1ccccc1) of 623 nm.

Consider `CCC1=C(C)C2=Cc3cc(I)c(I)n3[B-](F)(F)[N+]2=C1C`, for which the emission maximum (in C1CCCCC1) came out at 550.5 nm; the emission maximum (in CC(C)=O) turned out to be 552.5 nm; the emission maximum (in CCO) is recorded as 555 nm; the emission maximum (in CCOC(C)=O) was 551.5 nm; the emission maximum (in CO) was 552 nm; the emission maximum (in OCC(F)(F)F) is 548 nm.

On to `C[n+]1ccnc(/C=C/c2ccc(N(c3ccccc3)c3ccc(/C=C/c4c[n+](C)ccn4)cc3)cc2)c1`, for which the emission maximum by setting is: (in CS(C)=O) 530 nm; (in OCC(O)CO) 690 nm.

In the case of `CC(C)[Si](C#Cc1ccc2c(C#C[Si](C(C)C)(C(C)C)C(C)C)cc3c4cc(C#C[Si](C(C)C)(C(C)C)C(C)C)ccc4c(C#C[Si](C(C)C)(C(C)C)C(C)C)cc3c2c1)(C(C)C)C(C)C`, the emission maximum (in ClCCl) is 408 nm.

In turn, `CCCCCOc1ccc2c(c1)c1ccc3cccc4c5cc(OC)cc6oc(=O)c2c(c65)c1c34` yielded an emission maximum (in C1CCOC1) of 454 nm.

With `COc1cc2c3c4c(c5ccc(C(C)(C)C)cc5c5c(OC)cc(OC)c(c2c(OC)c1OC)c45)=[N+]1C3=Nc2c3c4cc(OC)c(OC)c(OC)c4c4c(OC)cc(OC)c5c6cc(C(C)(C)C)ccc6c(c3c54)n2[B-]1(F)F`, the emission maximum (in Cc1ccccc1) worked out at 907 nm.

As to `c1ccc(-c2nc(-c3ccc(-c4ccc(N(c5ccccc5)c5ccccc5)cc4)cn3)oc2-c2ccccc2)cc1`, the emission maximum (in C1CCOC1) stood at 458 nm; the emission maximum (in C1COCCO1) came to 454 nm; the emission maximum (in CC#N) stood at 507 nm; the emission maximum (in CC(C)=O) came to 495 nm; the emission maximum (in CC(C)OC(C)C) is listed as 434 nm; the emission maximum (in CCCCCC) came to 399 nm. The emission maximum runs as follows: (in CCCCOCCCC) 431 nm; (in CCN(CC)CC) 422 nm; (in CCOC(C)=O) 456 nm; (in CCOCC) 440 nm; (in Cc1ccccc1) 435 nm; (in c1ccccc1) 438 nm.

For `CCCCCCCCn1c2cc(/C=C/c3ccc(N(c4ccccc4)c4ccccc4)cc3)ccc2c2cc3c(cc21)c1ccc(/C=C/c2ccc(N(c4ccccc4)c4ccccc4)cc2)cc1n3CCCCCCCC`, the emission maximum (in Cc1ccccc1) worked out at 473 nm.

As for `CCN1C(=CC=Cc2n(CC)c3cc(Cl)c(Cl)cc3[n+]2CC)N(CC)c2cc(Cl)c(Cl)cc21`, the emission maximum worked out at 529 nm (in CC#N); 535 nm (in CCCCCCO); 534 nm (in CCCCO); 532 nm (in CCCO); 530 nm (in CCO); 528 nm (in CO). Besides, the emission maximum by setting is: (in CS(C)=O) 536 nm; (in OCC(O)CO) 535 nm; (in OCCO) 532 nm.

For `c1ccc(N(c2ccccc2)c2ccc(-c3ccc(-c4ccc(-c5ccc(-c6ccc(N(c7ccccc7)c7ccccc7)cc6)s5)c5nsnc45)s3)cc2)cc1`, the emission maximum (in ClC(Cl)Cl) was determined as 690 nm.

Turning to `CNc1ccc2c(c1)C(=O)c1ccccc1-2`, the emission maximum reads like this: (in C1CCCCC1) 587 nm; (in c1ccccc1) 635 nm.

`CCCCC(CC)COc1cc(OCC(CC)CCCC)c2c#cc3ccc4c(c3)c3cc(c#cc5cc(c#cc6ccc7c(c6)c6cc(c#cc1c2)ccc6n7CC(CC)CCCC)c(C(CCCC)OCCC)cc5C(CCCC)OCCC)ccc3n4CC(CC)CCCC` (configuration not stated) had an emission maximum (in ClCCl) of 388 nm.

Regarding `COc1ccc(-c2nc3c(c4c2-c2ccccc2CC4)-c2ccccc2CC3)cc1`, the emission maximum runs as follows: (in C1CCOC1) 420 nm; (in CC#N) 416 nm; (in CCCCCC) 408 nm; (in CCOC(C)=O) 425 nm; (in CO) 428 nm; (in CS(C)=O) 415 nm. Besides, the emission maximum was found to be 419 nm (in Cc1ccccc1) and 424 nm (in ClCCl).

The compound `c1ccc2c(c1)CC1(C2)c2cc(N3c4ccccc4Sc4ccccc43)ccc2-c2ccc(N3c4ccccc4Sc4ccccc43)cc21` gave an emission maximum (in Cc1ccccc1) of 495 nm.

`C[Si](C)(C)C#Cc1ccc(C#Cc2cnc(C#Cc3ccccc3)nc2)cc1` returned an emission maximum (in C1CCCCC1) of 390 nm.

As to `C(=C\c1nc(/C=C/c2ccc(N(c3ccccc3)c3ccccc3)cc2)cc(/C=C/c2ccc(N(c3ccccc3)c3ccccc3)cc2)n1)/c1ccccc1`, the emission maximum came out at 520 nm (in C1CCOC1); 591 nm (in CC#N); 563 nm (in CC(C)=O); 464 nm (in CCCCCCC); 596 nm (in CS(C)=O); 482 nm (in Cc1ccccc1). Where the note is “in ClCCl”, this compound came in with an emission maximum of 551 nm.

For `COc1ccccc1-c1nc(-c2ccccc2)c2ccccn12`, the emission maximum is 477 nm (in C1CCCCC1); 479 nm (in CC#N); 475 nm (in CO); 479 nm (in ClCCl); 481 nm (in O).

In the case of `CC(C)(C)c1ccc2c(c1)c1cc(C(C)(C)C)ccc1n2-c1cc(C(=O)c2ccccc2)cc(-n2c3ccc(C(C)(C)C)cc3c3cc(C(C)(C)C)ccc32)c1`, the emission maximum is, setting by setting: (in Cc1ccccc1) 466.36 nm; (in c1cc(-c2cccc(-n3c4ccccc4c4ccccc43)c2)cc(-n2c3ccccc3c3ccccc32)c1) 470.81 nm.

In turn, `CCOC(=O)/C=C/c1cc2ccc(-c3cn(Cc4ccccc4)nn3)cc2oc1=O` yielded an emission maximum (in CCO) of 435 nm.

`N#CSC1=CC2=C(c3ccccc3)c3cc(SC#N)c(N4CCOCC4)n3[B-](F)(F)[N+]2=C1N1CCOCC1`: the emission maximum is, setting by setting: (in CC#N) 628 nm; (in CCCCCC) 623 nm; (in CCOC(C)=O) 628 nm; (in CO) 620 nm; (in ClCCl) 630 nm.

`CC(C)[Si](C#Cc1ccc(C#C[Si](C(C)C)(C(C)C)C(C)C)c2nc3c(nc12)C1c2ccccc2C3c2ccccc21)(C(C)C)C(C)C` showed an emission maximum (in CCCCCC) of 404 nm.

For `COC(=O)[C@H](Cc1ccc2oc3c(c2c1)=CC1=C(c2ccc(OC)cc2)c2cc4c5cc(C[C@H](NC(=O)OC(C)(C)C)C(=O)OC)ccc5oc4n2[B-](F)(F)[N+]=31)NC(=O)OC(C)(C)C`, the emission maximum turned out to be 596.5 nm (in C1CCCCC1), 597 nm (in CCOC(C)=O) and 595 nm (in CO).
